From PubChem BioAssay (NCI) come the findings set out here.

Assay in all cases: growth of human tumour cells (NCI), 48 h
For assay [1], the system named is SNB-75 CNS.
The subject of assay [2] is HS 578T breast.
Assay [3] concerns HL-60(TB) leukemia.
Assay [4] relates to A498 renal.
Assay [5] relates to PC-3 prostate.
The subject of assay [6] is A549 NSCLC.
The test system of assay [7] is OVCAR-5 ovarian.
The subject of assay [8] is KM12 colon.
In assay [9] the test system is HCT-116 colon.
The subject of assay [10] is NCI-H226 lung.

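Five compound concentrations were applied to cells in 96-well plates for 48 hours; endpoints were derived by simple linear interpolation of the resulting dose-response curve. The concentration for 50% growth inhibition is given as GI50. At the TGI there is no net growth.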 Some results are limits rather than exact numbers.

Consider `CN(C)CCn1c(=O)c2ccc(NCCN3CCNCC3)c3c(=O)c4ccccc4n(c1=O)c23`, for which the TGI is 10.1 µM in assay [1]; 25.9 µM in assay [2]; 18.4 µM in assay [3]; 16.1 µM in [4]; 16.2 µM in assay [5]; 15.9 µM in assay [6]. In addition, the TGI came to 42.1 µM in [7], 16.4 µM in assay [8], 12.8 µM in assay [9] and 15.2 µM in assay [10].
For the molecule `CCOC(=O)C(Cc1ccc(OC(=O)c2ccc(OC)cc2)cc1)NC(=O)C(F)(F)F` (stereo not given), the TGI was 46.5 µM in [1]; over 100 µM in assay [2]; over 100 µM in assay [3]; over 100 µM in [4]; over 100 µM in [5]; over 100 µM in [6]. The TGI in [7], in assay [8], in assay [9] and in [10] was over 100 µM in each case.
Consider `O=C1C(=O)N(c2cccc(C(F)(F)F)c2)C(=S)N1c1ccccc1`, for which the TGI in assay [1] is over 100 µM; in assay [2], over 100 µM; in assay [3] it was 84.5 µM; in assay [4] it was 59.5 µM; in assay [5], over 100 µM; in assay [6], over 100 µM. For the same molecule, the TGI in assay [7] is 80.5 µM; in assay [8] it was over 100 µM; in assay [9], over 100 µM; in assay [10] it was 97.5 µM.
As to `COc1ccc(/C=C2\CCS(=O)(=O)c3ccccc3C2=O)cc1`, the TGI in assay [1] was over 100 µM; in [2] it was 82.8 µM; in [3], 66.4 µM; in [4], 37.1 µM; in assay [5], 75.3 µM; in assay [6], over 100 µM. The TGI in [7] is over 100 µM; in assay [8], 31 µM; in assay [9], 31.2 µM; in assay [10] it was 62.8 µM.
Take `O=[N+]([O-])C(=C(N1CCOCC1)N1CCOCC1)/C(Cl)=C(\Cl)Br`: the TGI in assay [1] was 33.2 µM; in assay [2] it was over 100 µM; in assay [3], 16.9 µM; in assay [4] it was over 100 µM; in [5], over 100 µM; in assay [6], over 100 µM. For the same molecule, the TGI in assay [7] was 32.4 µM; in assay [8] it was 76.3 µM; in [9], 30.8 µM; in assay [10], 60.5 µM.
With `Cn1c(=O)c2c(nc3n2CCCC(=O)N3CC(O)CCl)n(C)c1=O` (stereo not given), the TGI in [1], in assay [2], in assay [3], in assay [4], in [5] and in assay [6] was over 100 µM in each case. Besides, the TGI in assay [7], in assay [8], in [9] and in [10] was over 100 µM in each case.
On to `CS(=O)(=O)c1ccc(N=C/C=C/Nc2ccc(S(C)(=O)=O)cc2)cc1`, for which the TGI in assay [1], in assay [2], in [3], in assay [4], in [5] and in assay [6] was over 100 µM throughout. Also, the TGI in assay [7], in assay [8], in assay [9] and in assay [10] was over 100 µM in each case.
Consider `COc1ccc(Cc2nnc(Nc3ccc(Br)cc3)[nH]c2=O)cc1OC`, for which the TGI in assay [1], in assay [2], in assay [3], in assay [4], in assay [5] and in assay [6] was over 100 µM throughout. Moreover, the TGI in [7], in [8], in assay [9] and in [10] was over 100 µM in each case.
As to `CN(/N=C/c1cccc2cccnc12)c1ccc(Cl)cc1[N+](=O)[O-]`, the TGI in [1], in assay [2], in assay [3], in assay [4], in [5] and in assay [6] was over 100 µM throughout. For the same molecule, the TGI in assay [7], in assay [8], in assay [9] and in assay [10] was over 100 µM each time.
With `COc1ccccc1C1ON=C(c2ccc([N+](=O)[O-])cc2)N1C12CC3CC(CC(C3)C1)C2` (stereo not given), the TGI in [1] was over 100 µM; in [2], over 100 µM; in [3] it was 42.5 µM; in [4], over 100 µM; in assay [5] it was over 100 µM; in [6] it was over 100 µM. For the same molecule, the TGI in [7], in assay [8], in assay [9] and in [10] was over 100 µM each time.
With `CC(=O)O[C@H]1CC[C@@]2(C)C(=CC[C@@H]3[C@@H]2CC[C@]2(C)c4c(C)nn(-c5ccccc5)c4C[C@@H]32)C1`, the TGI in assay [1] is 49.9 µM; in [2], 67.2 µM; in assay [3], 77 µM; in assay [4], 52.8 µM; in assay [5] it was over 100 µM; in assay [6], over 100 µM. In addition, the TGI is 68.1 µM in [7], 86.7 µM in assay [8], over 100 µM in assay [9] and 75.3 µM in assay [10].
Regarding `O=C(Nc1ccc(-n2ccc3c(NC(=O)c4ccccc4)ncnc32)cc1)Nc1ccc(Cl)c(Cl)c1`, the GI50 in assay [1] was 1.03 µM; in [2] it was 1.19 µM; in assay [3] it was 8.18 µM; in assay [4], 7.05 µM; in [5], 1.06 µM; in [6], 1.95 µM. For the same molecule, the GI50 in [7] is 5.62 µM; in assay [8] it was 1.8 µM; in [9], 1.66 µM; in assay [10], 11.7 µM. The TGI in assay [1] came to 5.27 µM; in [2] it was 5.77 µM; in assay [3], 30.6 µM; in assay [4], 14.7 µM; in assay [5] it was 2.86 µM; in [6], 6.64 µM. The TGI was found to be 13.2 µM in assay [7], 6.67 µM in assay [8], 5.06 µM in [9] and 29.2 µM in [10].
